This test has as its target T1, human APJ receptor (Homo sapiens, UniProt P35414).
T1 construct: expressed in transfected cells
T1 sequence (P35414 1-380): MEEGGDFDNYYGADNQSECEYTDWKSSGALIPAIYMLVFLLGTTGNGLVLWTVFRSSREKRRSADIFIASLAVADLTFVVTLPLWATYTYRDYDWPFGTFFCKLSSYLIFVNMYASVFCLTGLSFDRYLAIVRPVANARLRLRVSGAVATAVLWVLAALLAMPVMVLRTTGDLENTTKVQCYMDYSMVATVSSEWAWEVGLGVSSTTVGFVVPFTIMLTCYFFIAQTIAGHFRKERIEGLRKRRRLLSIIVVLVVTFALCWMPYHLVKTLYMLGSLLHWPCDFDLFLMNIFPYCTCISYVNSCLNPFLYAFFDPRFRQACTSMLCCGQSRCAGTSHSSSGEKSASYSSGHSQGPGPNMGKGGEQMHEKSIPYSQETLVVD
As to the kind of experiment: Intracellular cAMP accumulation assay (APJ hcAMP, HTRF). The format is cell-based. To be noted: HEK293 cells stably expressing human APJ. The essentials:
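Inhibition of forskolin (2 μM)-stimulated cAMP, with […], was measured after 30 min compound exposure at room temperature in stably transfected HEK293 cells. HTRF ratios were converted to cAMP via standard curve, and EC50 values came from variable-slope sigmoidal concentration-response fitting.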
On the technique in general: Changes in cAMP serve as a functional read-out for many G protein-coupled receptors.

Setting [1] is: Table 4, forskolin-stimulated cAMP, read-out: Human cAMP EC50.
The mark [2] stands for this setting: Table 1, forskolin-stimulated cAMP, read-out: APJ cAMP EC50.
Where [3] appears, read: Table 7, forskolin-stimulated cAMP, read-out: Human cAMP EC50.
[4] abbreviates: Table 3, forskolin-stimulated cAMP, read-out: APJ cAMP EC50.

Where two headings read alike, the source gives them in different places.

The compound `CCCCc1[nH]c(=O)c(C(=O)N2CC[C@H](c3ccccc3)C2)c(O)c1-c1c(OC)cccc1OC` [Example 28, 6-butyl-5-(2,6-dimethoxyphenyl)-3-[(3R)-3-phenylpyrrolidine-1-carbonyl]pyridine-2,4-diol] returned an EC50 (APJ cAMP EC50 (nM), Table 1, forskolin-stimulated cAMP) of 0.01 to 10 nM.
As to `CCCCc1nc(O)c(C(=O)N2CC(OCc3cccc(F)c3F)C2)c(O)c1-c1c(OC)cccc1OC` [Example 116, 6-butyl-3-{3-[(2,3-difluorophenyl)methoxy]azetidine-1-carbonyl}-5-(2,6-dimethoxyphenyl)pyridine-2,4-diol], the EC50 under setting [1] is 0.01 to 10 nM.
Regarding `CCCCc1nc(O)c(C(=O)N2CCC(c3ccc(C(N)=O)cc3)CC2)c(O)c1-c1c(OC)cccc1OC` [Example 24, 4-{1-[6-butyl-5-(2,6-dimethoxyphenyl)-2,4-dihydroxypyridine-3-carbonyl]piperidin-4-yl}benzamide], under setting [2], the EC50 is 10 to 100 nM.
`CCCCc1nc(O)c(C(=O)N2CCC(O)(c3ccccc3)CC2)c(O)c1-c1c(OC)cccc1OC` [Example 46, 6-butyl-5-(2,6-dimethoxyphenyl)-3-(4-hydroxy-4-phenylpiperidine-1-carbonyl)pyridine-2,4-diol]: the EC50 under setting [2] was in the range of 10 to 100 nM.
Regarding `COCCc1nc(O)c(C(=O)N2CCN(Cc3cccc(F)c3)CC2)c(O)c1-c1c(OC)cccc1OC` [Example 88, 5-(2,6-dimethoxyphenyl)-3-{4-[(3-fluorophenyl)methyl]piperazine-1-carbonyl}-6-(2-methoxyethyl)pyridine-2,4-diol], the EC50 under setting [1] is 100 to 300 nM.
Regarding `CCCCc1nc(O)c(C(=O)N2CCN(Cc3cccc(F)c3F)CC2)c(O)c1-c1cccc(CC#N)c1` [Example 139, 2-[3-(2-butyl-5-{4-[(2,3-difluorophenyl)methyl]piperazine-1-carbonyl}-4,6-dihydroxypyridin-3-yl)phenyl]acetonitrile], the EC50 under setting [3] lay in the range of 0.01 to 10 nM.
Consider `CCCCc1nc(O)c(C(=O)N2CCN(Cc3ccccn3)CC2)c(O)c1-c1c(OC)cccc1OC` [Example 101, 6-butyl-5-(2,6-dimethoxyphenyl)-3-[4-(pyridin-2-ylmethyl)piperazine-1-carbonyl]pyridine-2,4-diol], for which the EC50 under setting [1] was 0.01 to 10 nM.
Regarding `CCCCc1nc(O)c(C(=O)N2CCN(Cc3cccc(F)c3F)CC2)c(O)c1-c1cccc(OC)c1OC` [Example 154, 6-butyl-3-{4-[(2,3-difluorophenyl)methyl]piperazine-1-carbonyl}-5-(2,3-dimethoxyphenyl)pyridine-2,4-diol], the EC50 under setting [1] fell in the range of 0.01 to 10 nM.
On the same count and under the same terms, the figure for `CCCCc1nc(O)c(C(=O)N2CCN(Cc3cccc(Cl)c3Cl)CC2)c(O)c1-c1cccc(OC)c1OC` [Example 112, 6-butyl-3-{4-[(2,3-dichlorophenyl)methyl]piperazine-1-carbonyl}-5-(2,3-dimethoxyphenyl)pyridine-2,4-diol] is 0.01 to 10 nM.
For the compound `CCCCc1nc(O)c(C(=O)N2CCC(c3[nH]cnc3C)CC2)c(O)c1-c1c(OC)cccc1OC` [Example 17, 6-butyl-5-(2,6-dimethoxyphenyl)-3-[4-(4-methyl-1H-imidazol-5-yl)piperidine-1-carbonyl]pyridine-2,4-diol], under setting [2], the EC50 is 10 to 100 nM.
Same read-out and setting: then `CCCCc1nc(O)c(C(=O)N2CCN(c3nsc4ccccc34)CC2)c(O)c1-c1c(OC)cccc1OC` [Example 49, 3-[4-(1,2-benzothiazol-3-yl)piperazine-1-carbonyl]-6-butyl-5-(2,6-dimethoxyphenyl)pyridine-2,4-diol], with 0.01 to 10 nM.
In the case of `CCCCc1nc(O)c(C(=O)N2CC[C@@H](c3ccccc3)C2)c(O)c1-c1cc(OC)ccc1OC` [Example 96, 6-butyl-5-(2,5-dimethoxyphenyl)-3-[(3S)-3-phenylpyrrolidine-1-carbonyl]pyridine-2,4-diol], under setting [1], the EC50 fell in the range of 0.01 to 10 nM.
`CCNCc1nc(O)c(C(=O)N2CCC(c3cccc(F)c3)C2)c(O)c1-c1c(OC)cccc1OC` (single isomer, unassigned) [Example 149, 5-(2,6-dimethoxyphenyl)-6-[(ethylamino)methyl]-3-[3-(3-fluorophenyl)pyrrolidine-1-carbonyl]pyridine-2,4-diol]: the EC50 (read-out: Human cAMP Potency range) was in the range of 100 to 300 nM.
Regarding `CCCCc1nc(O)c(C(=O)N2CCC(c3ncc(F)cc3F)C2)c(O)c1-c1cccc(OC)c1` (stereo not shown) [Example 142, 6-butyl-3-[3-(3,5-difluoropyridin-2-yl)pyrrolidine-1-carbonyl]-5-(3-methoxyphenyl)pyridine-2,4-diol], the EC50 under setting [3] lay in the range of 0.01 to 10 nM.
For the compound `CCCCc1nc(O)c(C(=O)N2CCC(c3ncccc3F)C2)c(O)c1-c1c(OC)cccc1OC` (stereo not shown) [Example 78, 6-butyl-5-(2,6-dimethoxyphenyl)-3-[3-(3-fluoropyridin-2-yl)pyrrolidine-1-carbonyl]pyridine-2,4-diol], under setting [4], the EC50 is 0.01 to 10 nM.
For `CCCCc1nc(O)c(C(=O)N2CCC(c3ccc(F)cn3)C2)c(O)c1-c1c(OC)cccc1OC` (stereo not shown) [Example 79, 6-butyl-5-(2,6-dimethoxyphenyl)-3-[3-(5-fluoropyridin-2-yl)pyrrolidine-1-carbonyl]pyridine-2,4-diol], under setting [4], the EC50 was 0.01 to 10 nM.
As to `CCOCc1nc(O)c(C(=O)N2CCN(Cc3cccc(F)c3F)CC2)c(O)c1-c1c(OC)cccc1OC` [Example 114, 3-{4-[(2,3-difluorophenyl)methyl]piperazine-1-carbonyl}-5-(2,6-dimethoxyphenyl)-6-(ethoxymethyl)pyridine-2,4-diol], under setting [1], the EC50 was 0.01 to 10 nM.
`CCCCc1nc(O)c(C(=O)N2CCC(c3nc4ccccc4s3)CC2)c(O)c1-c1c(OC)cccc1OC` [Example 48, 3-[4-(1,3-benzothiazol-2-yl)piperidine-1-carbonyl]-6-butyl-5-(2,6-dimethoxyphenyl)pyridine-2,4-diol]: the EC50 under setting [2] was in the range of 10 to 100 nM.
In the case of `CCCCc1nc(O)c(C(=O)N2CCN(c3ccccc3)CC2)c(O)c1-c1c(OC)cccc1OC` [Example 30, 6-butyl-5-(2,6-dimethoxyphenyl)-3-(4-phenylpiperazine-1-carbonyl)pyridine-2,4-diol], under setting [2], the EC50 was 10 to 100 nM.
`CCOCc1nc(O)c(C(=O)N2CCN(Cc3cccc(F)c3)CC2)c(O)c1-c1c(OC)cccc1OC` [Example 90, 5-(2,6-dimethoxyphenyl)-6-(ethoxymethyl)-3-{4-[(3-fluorophenyl)methyl]piperazine-1-carbonyl}pyridine-2,4-diol]: under setting [1], the EC50 fell in the range of 10 to 100 nM.
On the same count and under the same terms, the figure for `CCCCc1nc(O)c(C(=O)N2CCN(Cc3cccc(Cl)n3)CC2)c(O)c1-c1c(OC)cccc1OC` [Example 123, 6-butyl-3-{4-[(6-chloropyridin-2-yl)methyl]piperazine-1-carbonyl}-5-(2,6-dimethoxyphenyl)pyridine-2,4-diol] is 0.01 to 10 nM.
Turning to `CCCCc1nc(O)c(C(=O)N2CCC(c3cccc(Cl)c3)C2)c(O)c1-c1c(OC)cccc1OC` (single isomer, unassigned) [Example 37, 6-butyl-3-[3-(3-chlorophenyl)pyrrolidine-1-carbonyl]-5-(2,6-dimethoxyphenyl)pyridine-2,4-diol], the EC50 (Table 2, forskolin-stimulated cAMP, read-out: APJ cAMP EC50) lay in the range of 0.01 to 10 nM.

(Values after patent US10392347B2, “2,4-dihydroxy-nicotinamides as APJ agonists” (BRISTOL-MYERS SQUIBB COMPANY, priority 2015, dated 2019).)
